The kinase profiling compilation of Christmann-Franck et al. (2016)

What was measured:
Experiment in all cases: KINOMEscan competition binding
Details in all cases: compound 10.0 µM; call rule not given here
[1] = target: CSNK1E (human) (UniProt P49674)
[2] = target: AAK1 (human) (UniProt Q2M2I8)
[3] = target: EPHB1 (human) (UniProt P54762)
[4] = target: FLT3 (human) (UniProt P36888)
[5] = target: CSNK1D (human) (UniProt P48730)
[6] = target: NTRK2 (human) (UniProt Q16620)
[7] = target: DAPK3 (human) (UniProt O43293)
[8] = target: CAMK2A (human) (UniProt Q9UQM7)
[9] = target: SLK (human) (UniProt Q9H2G2)
[10] = target: BMX (human) (UniProt P51813)
[11] = target: CDK2 (human) (UniProt P24941)
[12] = target: MYLK2 (human) (UniProt Q9H1R3)
[13] = target: MAP4K4 (human) (UniProt O95819)
[14] = target: AURKB (human) (UniProt Q96GD4)
[15] = target: MAP4K5 (human) (UniProt Q9Y4K4)
[16] = target: CSNK1G2 (human) (UniProt P78368)
[17] = target: PDPK1 (human) (UniProt O15530)
[18] = target: CDK16 (human) (UniProt Q00536)
[19] = target: SIK2 (human) (UniProt Q9H0K1)
[20] = target: FRK (human) (UniProt P42685)
[21] = target: GSK3A (human) (UniProt P49840)
[22] = target: CAMKK1 (human) (UniProt Q8N5S9)
[23] = target: FLT1 (human) (UniProt P17948)
[24] = target: RAF1 (human) (UniProt P04049)
[25] = target: NTRK3 (human) (UniProt Q16288)
[26] = target: STK24 (human) (UniProt Q9Y6E0)
[27] = target: AURKC (human) (UniProt Q9UQB9)
[28] = target: AXL (human) (UniProt P30530)
[29] = target: TTK (human) (UniProt P33981)
[30] = target: TNNI3K (human) (UniProt Q59H18)
[31] = target: LCK (human) (UniProt P06239)
[32] = tested on: EIF2AK4 KD2 (human), Q9P2K8 [S808G]
[33] = target: ACVR1 (human) (UniProt Q04771)
[34] = target: TESK1 (human) (UniProt Q15569)
[35] = target: CSNK1G1 (human) (UniProt Q9HCP0)
[36] = target: PKN2 (human) (UniProt Q16513)
[37] = target: TEK (human) (UniProt Q02763)
[38] = target: ULK3 (human) (UniProt Q6PHR2)
[39] = target: MAPK8 (human) (UniProt P45983)
[40] = target: LYN (human) (UniProt P07948)
[41] = target: FES (human) (UniProt P07332)

Sequence of SIK2 (human) (Q9H0K1 whole entry, looked up): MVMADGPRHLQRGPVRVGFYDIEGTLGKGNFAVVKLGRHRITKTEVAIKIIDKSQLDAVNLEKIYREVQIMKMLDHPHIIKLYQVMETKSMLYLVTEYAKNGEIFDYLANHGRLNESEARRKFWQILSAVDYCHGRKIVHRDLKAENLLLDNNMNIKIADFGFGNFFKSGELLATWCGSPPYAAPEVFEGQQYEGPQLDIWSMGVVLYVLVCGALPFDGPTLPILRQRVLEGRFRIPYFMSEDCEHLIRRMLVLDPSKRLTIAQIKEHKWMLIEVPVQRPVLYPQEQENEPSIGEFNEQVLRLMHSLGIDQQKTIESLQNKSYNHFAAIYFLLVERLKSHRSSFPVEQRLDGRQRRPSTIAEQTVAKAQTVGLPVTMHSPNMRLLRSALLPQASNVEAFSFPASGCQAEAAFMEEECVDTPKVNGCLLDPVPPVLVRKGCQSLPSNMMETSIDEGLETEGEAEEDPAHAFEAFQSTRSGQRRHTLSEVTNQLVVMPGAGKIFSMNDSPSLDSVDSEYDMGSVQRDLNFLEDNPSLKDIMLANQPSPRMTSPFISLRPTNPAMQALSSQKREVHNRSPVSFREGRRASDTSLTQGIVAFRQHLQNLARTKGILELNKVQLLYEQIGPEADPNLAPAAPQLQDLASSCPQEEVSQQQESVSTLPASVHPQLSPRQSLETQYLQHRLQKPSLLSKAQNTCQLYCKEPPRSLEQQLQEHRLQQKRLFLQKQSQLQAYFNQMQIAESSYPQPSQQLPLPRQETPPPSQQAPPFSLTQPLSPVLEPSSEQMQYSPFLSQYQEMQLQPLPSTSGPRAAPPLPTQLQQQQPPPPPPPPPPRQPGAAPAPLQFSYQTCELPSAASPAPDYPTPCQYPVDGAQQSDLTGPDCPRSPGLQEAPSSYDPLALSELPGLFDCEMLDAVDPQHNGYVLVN
Sequence of FRK (human) (P42685 whole entry, looked up): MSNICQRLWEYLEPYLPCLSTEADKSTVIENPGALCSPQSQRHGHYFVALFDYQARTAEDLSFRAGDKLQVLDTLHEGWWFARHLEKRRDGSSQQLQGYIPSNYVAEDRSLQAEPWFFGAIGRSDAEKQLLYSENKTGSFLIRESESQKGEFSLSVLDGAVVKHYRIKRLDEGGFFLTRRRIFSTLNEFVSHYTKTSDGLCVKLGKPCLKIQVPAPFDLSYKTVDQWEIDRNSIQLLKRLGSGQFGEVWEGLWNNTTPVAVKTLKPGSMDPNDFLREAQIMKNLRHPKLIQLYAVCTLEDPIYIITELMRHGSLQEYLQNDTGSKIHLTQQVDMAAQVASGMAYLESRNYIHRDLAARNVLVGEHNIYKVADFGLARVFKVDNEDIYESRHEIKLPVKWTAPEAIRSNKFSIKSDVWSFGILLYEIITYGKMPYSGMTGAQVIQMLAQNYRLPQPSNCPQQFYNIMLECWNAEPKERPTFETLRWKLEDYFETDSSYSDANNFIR
Sequence of ACVR1 (human) (Q04771 whole entry, looked up): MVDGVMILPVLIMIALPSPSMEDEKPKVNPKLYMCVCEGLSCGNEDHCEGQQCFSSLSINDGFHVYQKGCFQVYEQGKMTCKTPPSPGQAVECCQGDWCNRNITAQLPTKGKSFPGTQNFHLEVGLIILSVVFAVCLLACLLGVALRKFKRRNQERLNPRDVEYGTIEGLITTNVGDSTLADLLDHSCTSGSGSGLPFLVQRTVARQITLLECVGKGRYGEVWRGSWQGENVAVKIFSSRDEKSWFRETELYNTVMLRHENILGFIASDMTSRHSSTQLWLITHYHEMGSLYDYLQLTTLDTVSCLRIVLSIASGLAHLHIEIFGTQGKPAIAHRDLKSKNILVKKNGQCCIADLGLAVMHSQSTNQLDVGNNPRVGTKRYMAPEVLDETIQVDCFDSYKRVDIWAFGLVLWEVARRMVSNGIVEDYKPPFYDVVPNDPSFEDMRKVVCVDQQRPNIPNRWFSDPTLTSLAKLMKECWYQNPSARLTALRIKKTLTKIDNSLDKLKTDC
Sequence of DAPK3 (human) (O43293 whole entry, looked up): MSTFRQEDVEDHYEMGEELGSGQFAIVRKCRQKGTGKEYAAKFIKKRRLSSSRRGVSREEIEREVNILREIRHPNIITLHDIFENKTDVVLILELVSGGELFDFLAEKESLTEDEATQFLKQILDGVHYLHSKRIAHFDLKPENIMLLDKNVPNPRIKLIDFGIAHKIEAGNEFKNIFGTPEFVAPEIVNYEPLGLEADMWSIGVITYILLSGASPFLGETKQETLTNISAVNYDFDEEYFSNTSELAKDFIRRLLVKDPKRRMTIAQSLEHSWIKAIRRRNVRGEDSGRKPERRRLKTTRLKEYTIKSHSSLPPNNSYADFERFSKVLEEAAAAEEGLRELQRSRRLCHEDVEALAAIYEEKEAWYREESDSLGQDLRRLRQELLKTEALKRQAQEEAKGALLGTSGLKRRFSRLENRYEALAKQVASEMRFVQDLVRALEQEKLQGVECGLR
Sequence of AURKC (human) (Q9UQB9 whole entry, looked up): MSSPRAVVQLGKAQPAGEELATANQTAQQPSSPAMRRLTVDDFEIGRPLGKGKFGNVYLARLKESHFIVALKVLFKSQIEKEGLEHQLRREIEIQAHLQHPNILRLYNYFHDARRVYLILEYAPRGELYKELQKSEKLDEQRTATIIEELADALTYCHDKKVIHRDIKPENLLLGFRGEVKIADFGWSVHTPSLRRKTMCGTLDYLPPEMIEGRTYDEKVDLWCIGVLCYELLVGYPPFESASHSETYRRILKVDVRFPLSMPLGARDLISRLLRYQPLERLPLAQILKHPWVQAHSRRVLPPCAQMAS
Sequence of AURKB (human) (Q96GD4 whole entry, looked up): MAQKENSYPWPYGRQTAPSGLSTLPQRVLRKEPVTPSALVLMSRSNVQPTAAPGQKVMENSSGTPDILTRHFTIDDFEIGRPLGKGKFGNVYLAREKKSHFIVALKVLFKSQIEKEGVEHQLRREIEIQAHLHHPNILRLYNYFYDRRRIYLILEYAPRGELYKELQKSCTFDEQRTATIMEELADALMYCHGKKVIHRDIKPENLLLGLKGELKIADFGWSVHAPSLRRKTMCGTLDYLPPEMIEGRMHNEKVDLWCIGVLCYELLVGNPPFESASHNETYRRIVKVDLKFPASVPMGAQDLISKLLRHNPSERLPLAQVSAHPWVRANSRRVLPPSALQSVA
Sequence of PDPK1 (human) (O15530 whole entry, looked up): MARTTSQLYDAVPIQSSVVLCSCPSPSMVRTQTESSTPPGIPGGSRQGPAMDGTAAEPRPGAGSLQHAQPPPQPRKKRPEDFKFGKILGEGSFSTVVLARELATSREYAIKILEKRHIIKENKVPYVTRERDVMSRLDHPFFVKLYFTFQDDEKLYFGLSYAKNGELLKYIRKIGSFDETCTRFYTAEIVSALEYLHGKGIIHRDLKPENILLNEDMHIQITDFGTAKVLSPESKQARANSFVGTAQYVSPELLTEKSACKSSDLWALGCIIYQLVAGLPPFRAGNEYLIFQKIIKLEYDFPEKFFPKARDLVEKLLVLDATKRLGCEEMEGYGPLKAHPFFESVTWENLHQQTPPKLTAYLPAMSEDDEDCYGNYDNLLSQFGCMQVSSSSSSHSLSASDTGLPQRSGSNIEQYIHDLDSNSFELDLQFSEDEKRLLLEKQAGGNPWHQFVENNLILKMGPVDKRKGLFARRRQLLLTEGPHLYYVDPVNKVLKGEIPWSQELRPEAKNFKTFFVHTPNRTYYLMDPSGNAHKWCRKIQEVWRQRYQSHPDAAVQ
Sequence of CSNK1G1 (human) (Q9HCP0 whole entry, looked up): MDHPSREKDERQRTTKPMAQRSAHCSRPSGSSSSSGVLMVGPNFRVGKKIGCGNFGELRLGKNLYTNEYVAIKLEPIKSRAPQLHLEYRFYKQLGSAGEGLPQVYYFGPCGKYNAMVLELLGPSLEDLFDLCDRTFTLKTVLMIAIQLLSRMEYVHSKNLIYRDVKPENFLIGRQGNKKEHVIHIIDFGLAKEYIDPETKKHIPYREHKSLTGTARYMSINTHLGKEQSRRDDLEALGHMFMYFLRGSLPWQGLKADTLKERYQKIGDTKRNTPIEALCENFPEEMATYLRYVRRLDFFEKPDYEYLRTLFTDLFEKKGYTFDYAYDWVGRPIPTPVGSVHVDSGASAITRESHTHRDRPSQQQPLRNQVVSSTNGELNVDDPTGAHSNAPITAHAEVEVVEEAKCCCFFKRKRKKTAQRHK
Sequence of EPHB1 (human) (P54762 whole entry, looked up): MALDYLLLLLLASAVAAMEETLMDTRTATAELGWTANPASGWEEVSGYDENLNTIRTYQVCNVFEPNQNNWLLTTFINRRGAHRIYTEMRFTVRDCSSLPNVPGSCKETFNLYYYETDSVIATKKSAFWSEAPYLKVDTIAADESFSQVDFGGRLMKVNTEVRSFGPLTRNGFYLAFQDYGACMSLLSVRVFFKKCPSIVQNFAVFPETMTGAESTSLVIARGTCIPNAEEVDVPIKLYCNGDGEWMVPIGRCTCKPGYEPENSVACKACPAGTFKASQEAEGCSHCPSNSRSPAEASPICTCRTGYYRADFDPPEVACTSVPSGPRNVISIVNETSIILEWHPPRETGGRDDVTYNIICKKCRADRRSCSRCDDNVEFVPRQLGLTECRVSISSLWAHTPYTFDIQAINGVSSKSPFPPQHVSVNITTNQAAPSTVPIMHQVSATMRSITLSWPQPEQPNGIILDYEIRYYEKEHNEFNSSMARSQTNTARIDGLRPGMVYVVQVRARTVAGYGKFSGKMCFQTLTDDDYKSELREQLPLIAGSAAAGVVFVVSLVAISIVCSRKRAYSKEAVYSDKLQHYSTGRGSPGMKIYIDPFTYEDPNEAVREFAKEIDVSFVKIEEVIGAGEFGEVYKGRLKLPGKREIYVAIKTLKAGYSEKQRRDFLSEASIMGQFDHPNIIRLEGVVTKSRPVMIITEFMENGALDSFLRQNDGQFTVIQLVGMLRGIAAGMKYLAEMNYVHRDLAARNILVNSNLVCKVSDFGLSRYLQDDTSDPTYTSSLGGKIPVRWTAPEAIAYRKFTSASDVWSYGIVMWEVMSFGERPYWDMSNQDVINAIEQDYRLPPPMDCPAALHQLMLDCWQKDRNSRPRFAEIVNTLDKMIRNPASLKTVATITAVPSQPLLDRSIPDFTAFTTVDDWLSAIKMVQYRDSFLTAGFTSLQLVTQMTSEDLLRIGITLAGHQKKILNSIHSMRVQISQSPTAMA

Row | Structure (SMILES) | kinase still bound, per cent of control [1] | kinase still bound, per cent of control [3] | kinase still bound, per cent of control [4] | kinase still bound, per cent of control [5] | kinase still bound, per cent of control [6] | kinase still bound, per cent of control [7] | kinase still bound, per cent of control [9] | kinase still bound, per cent of control [10] | kinase still bound, per cent of control [13] | kinase still bound, per cent of control [14] | kinase still bound, per cent of control [15] | kinase still bound, per cent of control [17] | kinase still bound, per cent of control [19] | kinase still bound, per cent of control [20] | kinase still bound, per cent of control [22] | kinase still bound, per cent of control [23] | kinase still bound, per cent of control [24] | kinase still bound, per cent of control [25] | kinase still bound, per cent of control [26] | kinase still bound, per cent of control [27] | also measured
1 | CCS(=O)(=O)Nc1ccc2c(c1)[C@H](/C(=N/c1ccc(CN3CCCCC3)cc1)c1ccccc1)C(=O)N2 | 2.4% | 0% | 0% | no effect (inactive) | 0% | 2.1% | 0% | 1.4% | 0.25% | 0% | 0% | 5.8% | 0.8% | 0.5% | 0.1% | 0.1% | no effect (inactive) | 0% | 0.1% | 0.5% | kinase still bound, per cent of control [2]: 0.1%; kinase still bound, per cent of control [8]: 0.5%; kinase still bound, per cent of control [11]: 28.3%; kinase still bound, per cent of control [12]: 20.7%; kinase still bound, per cent of control [16]: no effect (inactive); kinase still bound, per cent of control [18]: 0%; kinase still bound, per cent of control [21]: 0.85%; kinase still bound, per cent of control [28]: 0%; kinase still bound, per cent of control [29]: 0%; kinase still bound, per cent of control [30]: 7.6%; kinase still bound, per cent of control [31]: 0%; kinase still bound, per cent of control [32]: 0%; kinase still bound, per cent of control [33]: 0.1%; kinase still bound, per cent of control [34]: 10.8%; kinase still bound, per cent of control [35]: no effect (inactive); kinase still bound, per cent of control [36]: 3%; kinase still bound, per cent of control [37]: 0.4%; kinase still bound, per cent of control [38]: 0%; kinase still bound, per cent of control [39]: 0%; kinase still bound, per cent of control [40]: 0.2%
2 | CC(=O)c1c(-c2ccncc2)[nH]c(-c2ccncc2)c1C | 0% | no effect (inactive) | no effect (inactive) | 0% | no effect (inactive) | no effect (inactive) | no effect (inactive) | no effect (inactive) | no effect (inactive) | no effect (inactive) | no effect (inactive) | no effect (inactive) | no effect (inactive) | no effect (inactive) | no effect (inactive) | no effect (inactive) | no effect (inactive) | no effect (inactive) | no effect (inactive) | no effect (inactive) | kinase still bound, per cent of control [41]: no effect (inactive); kinase still bound, per cent of control [28]: no effect (inactive); kinase still bound, per cent of control [29]: no effect (inactive); kinase still bound, per cent of control [30]: no effect (inactive); kinase still bound, per cent of control [31]: no effect (inactive); kinase still bound, per cent of control [32]: no effect (inactive); kinase still bound, per cent of control [33]: no effect (inactive); kinase still bound, per cent of control [34]: no effect (inactive); kinase still bound, per cent of control [35]: 0%; kinase still bound, per cent of control [36]: no effect (inactive); kinase still bound, per cent of control [37]: no effect (inactive); kinase still bound, per cent of control [38]: no effect (inactive); kinase still bound, per cent of control [40]: no effect (inactive)
